Assay results published in patent US9963467B2, “Boronic acid derivatives and therapeutic uses thereof” (Rempex Pharmaceuticals, Inc., priority 2014, dated 2018).
Blank lines part the entries; values can stand above or below the compound they belong to.

Columns and labels:
[1] = Serum stability of prodrugs, human serum; type: in vitro ADME; settings: for Measured Initial Conc. in Serum / Conc. at t = 2 h / Conc. at t = 4 h: human serum, theoretical initial conc. 40 ug/mL; for Measured Initial Conc. in Serum: 37 degrees; for Conc. at t = 2 h / Conc. at t = 4 h: prodrug
Procedure: (§1) Prodrug strategy is one of the ways to achieve or increase oral bioavailability for therapeutic drugs. […] After a prodrug molecule is absorbed into systemic circulation, it should be hydrolyzed in the blood in order to release the active form. Hydrolysis of several prodrugs by rat and human serum were evaluated.
(§2) For all stability experiments the test compounds were treated with rat or human serum in Eppendorf tubes. Typically, 992 μl of serum was prewarmed at 37 degrees for 2 minutes and then 8 μl of a compound (at 5 mg/ml, 125×) was added to it to get a final concentration of […] and immediately mixed. Alternatively, serum stability might be tested at 1 mg/ml. […] After vortexing for 30 seconds, the tube was centrifuged in a microcentrifuge for 10 minutes at 15K rpm. Next, 100 μl of the supernatant was combined with 600 μl of water and injected on LC-MS using 0.1% formic acid in water for mobile phase A and 0.1% formic acid in methanol for mobile phase B on an ACE 5 C18 2.1×100 mm column with a 10 μL injection. The flow rate and gradient were adjusted as needed to give the desired resolution and run time. The pH of the mobile phase was adjusted if needed to improve the chromatography.
(§3) The time course of both the disappearance of a prodrug and the appearance of the active form of that prodrug is presented in Table 6 and Table 7. The active metabolites for all of the listed prodrugs are corresponding parent drugs

[2] = Serum stability of prodrugs, rat serum; type: in vitro ADME; settings: theoretical initial conc. 40 ug/mL; for Measured Initial Conc. in Serum: 37 degrees; for Conc. at t = 2 h / Conc. at t = 4 h: prodrug
Procedure: as §1, §2, §3

[3] = test system: ec302 (TEM-10); assay: Aztreonam potentiation (MPC@4), ec302; type: cell-based; settings: BLI with aztreonam at 4 μg/mL
[4] = test system: ECL1002; assay: Aztreonam potentiation (MPC@4), ECL1002; type: cell-based; settings: BLI with aztreonam at 4 μg/mL
[5] = test system: EC1010 (CMY-6); assay: organism not typed; type: cell-based
[6] = test system: KP1005 (CTX-M-14); assay: Tigemonam potentiation (MPC@4), KP1005; type: cell-based; settings: BLI with tigemonam at 4 μg/mL
[7] = test system: KP1009 (CTX-M-15); assay: Tigemonam potentiation (MPC@4), KP1009; type: cell-based; settings: BLI with tigemonam at 4 μg/mL
[8] = test system: ec308 (SHV-5); assay: Tigemonam potentiation (MPC@4), ec308; type: cell-based
[9] = test system: KP1010 (SHV-12); assay: Tigemonam potentiation (MPC@4), KP1010; type: cell-based
[10] = test system: ec302 (TEM-10); assay: Tigemonam potentiation (MPC@4), ec302; type: cell-based
[11] = test system: ECL1002; assay: Tigemonam potentiation (MPC@4), ECL1002; type: cell-based; settings: BLI with tigemonam at 4 μg/mL
[12] = test system: EC1010 (CMY-6); assay: Tigemonam potentiation (MPC@4), EC1010; type: cell-based; settings: BLI with tigemonam at 4 μg/mL
[13] = molecular target: CTX-M-14 (Escherichia coli, UniProt Q9L5C7); assay: Ki, nitrocefin cleavage by purified enzyme, CTX-M-14; type: biochemical; settings: nitrocefin reporter substrate; read-out: Ki (CTX-M-14, NCF)
CTX-M-14, sequence (Q9L5C7 29-291): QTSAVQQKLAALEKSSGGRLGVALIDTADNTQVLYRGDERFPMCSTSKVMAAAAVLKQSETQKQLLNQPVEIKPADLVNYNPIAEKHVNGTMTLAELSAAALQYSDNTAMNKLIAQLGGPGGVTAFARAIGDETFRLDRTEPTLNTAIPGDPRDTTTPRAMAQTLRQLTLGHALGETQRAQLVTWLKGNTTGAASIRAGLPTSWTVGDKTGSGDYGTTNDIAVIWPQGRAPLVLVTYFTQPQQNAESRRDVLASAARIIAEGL
Procedure: (§4) Purified enzymes were mixed with various concentrations of inhibitors in reaction buffer and incubated for 10 min at room temperature. Nitrocefin was added and substrate cleavage profiles were recorded at 490 nm every 10 sec for 10 min.

[14] = molecular target: SHV-12 (Klebsiella pneumoniae, UniProt P0AD64, E235K/G234S/L31Q); assay: Ki, nitrocefin cleavage by purified enzyme, SHV-12; type: biochemical; settings: nitrocefin reporter substrate; read-out: Ki (SHV-12, NCF)
SHV-12, sequence (P0AD64 22-286 L31Q/G234S/E235K): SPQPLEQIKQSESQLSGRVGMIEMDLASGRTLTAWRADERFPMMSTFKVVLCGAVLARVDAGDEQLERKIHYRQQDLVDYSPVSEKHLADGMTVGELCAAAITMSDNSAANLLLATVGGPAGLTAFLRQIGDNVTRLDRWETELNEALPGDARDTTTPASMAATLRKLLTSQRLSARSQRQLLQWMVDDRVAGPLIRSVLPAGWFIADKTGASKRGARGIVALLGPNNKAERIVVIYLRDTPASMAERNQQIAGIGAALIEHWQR
Procedure: as §4

[15] = molecular target: KPC-2 (Klebsiella pneumoniae, UniProt Q9F663); assay: Ki, nitrocefin cleavage by purified enzyme, KPC-2; type: biochemical; settings: nitrocefin reporter substrate; read-out: Ki (KPC-2, NCF)
KPC-2, sequence (Q9F663 25-293, looked up, species assumed): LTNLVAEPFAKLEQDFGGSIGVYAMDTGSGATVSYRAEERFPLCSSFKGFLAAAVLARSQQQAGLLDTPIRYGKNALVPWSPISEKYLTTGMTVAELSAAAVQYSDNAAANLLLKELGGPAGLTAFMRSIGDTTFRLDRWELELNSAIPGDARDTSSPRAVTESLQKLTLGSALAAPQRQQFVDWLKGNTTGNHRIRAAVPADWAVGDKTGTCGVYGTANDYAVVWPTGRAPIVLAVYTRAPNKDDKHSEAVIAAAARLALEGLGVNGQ
Procedure: as §4

[16] = molecular target: P99 (Enterobacter cloacae, UniProt P05364); assay: Ki, nitrocefin cleavage by purified enzyme, P99; type: biochemical; settings: nitrocefin reporter substrate; read-out: Ki (P99, NCF)
P99, sequence (P05364 21-381): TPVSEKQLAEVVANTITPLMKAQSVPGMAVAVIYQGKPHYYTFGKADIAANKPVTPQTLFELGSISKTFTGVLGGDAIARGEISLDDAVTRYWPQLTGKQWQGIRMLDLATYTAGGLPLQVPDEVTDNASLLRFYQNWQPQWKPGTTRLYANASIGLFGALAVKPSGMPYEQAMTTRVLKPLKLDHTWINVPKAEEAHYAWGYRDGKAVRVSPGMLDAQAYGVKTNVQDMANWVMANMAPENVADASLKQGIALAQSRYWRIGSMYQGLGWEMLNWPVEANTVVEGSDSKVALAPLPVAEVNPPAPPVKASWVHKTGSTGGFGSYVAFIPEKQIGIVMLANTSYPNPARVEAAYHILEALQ
Procedure: as §4

[17] = molecular target: Pa AmpC (Pseudomonas aeruginosa, UniProt P24735); assay: Ki, nitrocefin cleavage by purified enzyme, Pa AmpC; type: biochemical; settings: nitrocefin reporter substrate; read-out: Ki (Pa AmpC, NCF)
Pa AmpC, sequence (P24735 27-397): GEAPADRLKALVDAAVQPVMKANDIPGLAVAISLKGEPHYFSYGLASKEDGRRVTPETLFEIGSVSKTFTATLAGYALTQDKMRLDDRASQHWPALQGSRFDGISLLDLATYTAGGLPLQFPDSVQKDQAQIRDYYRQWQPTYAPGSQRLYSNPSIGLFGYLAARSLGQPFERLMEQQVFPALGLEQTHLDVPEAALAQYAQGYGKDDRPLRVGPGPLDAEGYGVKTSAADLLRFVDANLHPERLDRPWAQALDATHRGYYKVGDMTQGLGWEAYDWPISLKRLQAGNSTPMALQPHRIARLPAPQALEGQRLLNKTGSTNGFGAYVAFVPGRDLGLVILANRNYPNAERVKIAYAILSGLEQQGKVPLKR
Procedure: Ki values of inhibition of purified class A, C and D enzymes were determined spectrophotometrically using nitrocefin as reporter substrate. Purified enzymes were mixed with various concentrations of inhibitors in reaction buffer and incubated for 10 min at room temperature. Nitrocefin was added and substrate cleavage profiles were recorded at 490 nm every 10 sec for 10 min. These experiments confirmed that the described compounds are inhibitors with a broad-spectrum of activity towards various β-lactamases.

[18] = molecular target: OXA-48 (Klebsiella pneumoniae, UniProt Q6XEC0); assay: Ki, nitrocefin cleavage by purified enzyme, OXA-48; type: biochemical; settings: nitrocefin reporter substrate; read-out: Ki (OXA-48, NCF)
OXA-48, sequence (Q6XEC0 23-265, looked up, species assumed): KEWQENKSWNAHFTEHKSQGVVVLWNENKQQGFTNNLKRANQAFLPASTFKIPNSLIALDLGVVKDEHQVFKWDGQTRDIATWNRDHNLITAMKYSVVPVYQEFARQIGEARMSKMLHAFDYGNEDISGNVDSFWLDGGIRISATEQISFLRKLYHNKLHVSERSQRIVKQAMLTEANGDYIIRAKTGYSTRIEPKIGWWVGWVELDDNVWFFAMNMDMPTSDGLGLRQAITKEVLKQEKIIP
Procedure: as §4

[19] = test system: KP1004 (KPC-2); assay: Biapenem potentiation (MPC@1), KP1004; settings: BLI with biapenem at 1 μg/mL
[20] = test system: KP1086 (OXA-48); assay: Biapenem potentiation (MPC@1), KP1086; settings: BLI with biapenem at 1 μg/mL

Measured Initial Conc. in Serum [1]: 30.6 µg/mL
Conc. at t = 2 h [1]: 1560 ng/mL
Conc. at t = 4 h [1]: BQL
Measured Initial Conc. in Serum [2]: 28.1 µg/mL
Conc. at t = 2 h [2]: 9.81 (t = 2 h) ug/mL
Conc. at t = 4 h [2]: BQL
SMILES: CCCC(=O)OCOC(=O)c1c(F)ccc2c1OB(O)[C@@H](NC(=O)CSC)C2 [Compound 13, (R)-butyryloxymethyl 7-fluoro-2-hydroxy-3-(2-(methylthio)acetamido)-3,4-dihydro-2H-benzo[e][1,2]oxaborinine-8-carboxylate]
conversion of prodrug to active metabolite ([1]; serum (Tables 6 and 7), 4 hour experiment): completely converted to active metabolite

SMILES: CSCC(=O)N[C@H]1Cc2ccc(F)c(C(=O)OCOC(C)=O)c2OB1O [Compound 14, (R)-acetoxymethyl 7-fluoro-2-hydroxy-3-(2-(methylthio)acetamido)-3,4-dihydro-2H-benzo[e][1,2]oxaborinine-8-carboxylate]
Measured Initial Conc. in Serum [1]: 36.8 µg/mL
Conc. at t = 2 h [1]: 5000 ng/mL
Conc. at t = 4 h [1]: 1130 ng/mL
Measured Initial Conc. in Serum [2]: 39.6 µg/mL
Conc. at t = 2 h [2]: BQL
Conc. at t = 4 h [2]: BQL

SMILES: COc1ccc2c(c1C(=O)O)OB(O)[C@@H](NC(=O)CSC(F)F)C2 [Compound 25, (R)-3-(2-(difluoromethylthio)acetamido)-2-hydroxy-7-methoxy-3,4-dihydro-2H-benzo[e][1,2]oxaborinine-8-carboxylic acid]
AZT MPC4 TEM-10 ec302 [3]: X (MIC of less than 1 ng/mL)
AZT MPC4 ECL1002 [4]: Y (MIC of 1 μg/mL to 10 μg/mL)
AZT MPC4 CMY-6 EC1010 [5]: Y (key: X: MIC of less than 1 ng/mL; Y: MIC of 1 μg/mL to 10 μg/mL; Z: MIC of greater than 10 μg/mL)
TIG MPC4 CTX-M-14 KP1005 [6]: X (MIC of less than 1 μg/mL)
TIG MPC4 CTX-M-15 KP1009 [7]: X (MIC of less than 1 μg/mL)
TIG MPC4 SHV-5 ec308 [8]: X (key: X: MIC of less than 1 μg/mL; Y: MIC of 1 μg/mL to 10 μg/mL; Z: MIC of greater than 10 μg/mL)
TIG MPC4 SHV-12 KP1010 [9]: X (key: X: MIC of less than 1 μg/mL; Y: MIC of 1 μg/mL to 10 μg/mL; Z: MIC of greater than 10 μg/mL)
TIG MPC4 TEM-10 ec302 [10]: Y (key: X: MIC of less than 1 ng/mL; Y: MIC of 1 μg/mL to 10 μg/mL; Z: MIC of greater than 10 μg/mL)
TIG MPC4 ECL1002 [11]: X (MIC of less than 1 μg/mL)
TIG MPC4 CMY-6 EC1010 [12]: X (MIC of less than 1 μg/mL)
Ki [13]: < 1 nM
Ki [14]: < 1 nM
Ki [15]: 1 to 10 nM
Ki [16]: 1 to 10 nM
Ki [17]: > 10 nM
Ki [18]: < 1 nM
BPM MPC1 KP1004 KPC-2 [19]: X (MIC of less than 1 μg/mL)
BPM MPC1 OXA-48 KP1086 [20]: Z (MIC of greater than 10 μg/mL)

SMILES: COc1ccc2c(c1C(=O)O)OB(O)[C@@H](NC(=O)CC(N)=O)C2 [Compound 27, (R)-3-(3-amino-3-oxopropanamido)-2-hydroxy-7-methoxy-3,4-dihydro-2H-benzo[e][1,2]oxaborinine-8-carboxylic acid]
AZT MPC4 TEM-10 ec302 [3]: Y (MIC of 1 μg/mL to 10 μg/mL)
AZT MPC4 ECL1002 [4]: Y (MIC of 1 μg/mL to 10 μg/mL)
AZT MPC4 CMY-6 EC1010 [5]: Y (key: X: MIC of less than 1 ng/mL; Y: MIC of 1 μg/mL to 10 μg/mL; Z: MIC of greater than 10 μg/mL)
TIG MPC4 CTX-M-14 KP1005 [6]: Y (MIC of 1 μg/mL to 10 μg/mL)
TIG MPC4 CTX-M-15 KP1009 [7]: X (MIC of less than 1 μg/mL)
TIG MPC4 SHV-5 ec308 [8]: X (key: X: MIC of less than 1 μg/mL; Y: MIC of 1 μg/mL to 10 μg/mL; Z: MIC of greater than 10 μg/mL)
TIG MPC4 SHV-12 KP1010 [9]: X (key: X: MIC of less than 1 μg/mL; Y: MIC of 1 μg/mL to 10 μg/mL; Z: MIC of greater than 10 μg/mL)
TIG MPC4 TEM-10 ec302 [10]: Z (key: X: MIC of less than 1 ng/mL; Y: MIC of 1 μg/mL to 10 μg/mL; Z: MIC of greater than 10 μg/mL)
TIG MPC4 ECL1002 [11]: X (MIC of less than 1 μg/mL)
TIG MPC4 CMY-6 EC1010 [12]: X (MIC of less than 1 μg/mL)
Ki [13]: < 1 nM
Ki [14]: < 1 nM
Ki [15]: > 10 nM
Ki [16]: > 10 nM
Ki [17]: > 10 nM
Ki [18]: < 1 nM
BPM MPC1 KP1004 KPC-2 [19]: X (MIC of less than 1 μg/mL)
BPM MPC1 OXA-48 KP1086 [20]: Y (MIC of 1 μg/mL to 10 μg/mL)
